Tests used:
[1] = Determination of inhibitor concentration in plasma after oral dosing; format: in vivo, Sprague Dawley rats; conditions: Sprague-Dawley, rat plasma
Protocol: The dosing solution consisted of the inhibitor dissolved in either a molar equivalent of HCl in water (vehicle A), in 60% aq. propylene glycol (vehicle B), or in 2.8 mg/mL sodium bicarbonate in 60% aqueous propylene glycol (vehicle C), yielding a final concentration that ranged from 10-15 mg/ml. Sprague Dawley rats (Hilltop Lab Animals, Scottsdale, Pa.) were dosed as a function of drug weight per body weight, usually 50 mgper kg. Blood was taken from the rats and centrifuged, and the plasma was stored in the freezer. Drug was extracted from a 50 μl plasma aliquot by adding 1 ml of acetonitrile, shaking for 2 minutes, centrifuging for 15 minutes at 4000 rpm, collecting the supernatant, and then evaporating it to dryness under a stream of nitrogen. The samples were reconstituted with 130 μl of mobile phase, shook for 2 minutes, and centrifuged for 15 minutes at 4000 rpm. The supernatant was collected and the samples were analyzed by injecting 100 μl of supernatant onto HPLC.
Quantitation of drug levels was accomplished by generating a standard curve of known drug amounts that were extracted from added plasma. Drug levels were plotted as a function of time and analyzed to provide area under the curve (AUC) and maximum concentration (Cmax) values.

[2] = target: T1, human collagenase-3 (Coll3) (Homo sapiens, UniProt P45452); experiment: Fluorometric MCA-peptide hydrolysis assay, collagenase-3 (Coll3); format: biochemical; conditions: apparent Ki; 10 μM MCA peptide substrate, 37° C., pH 7.5; read-out: Coll3 (Ki,app)
T1 construct: the catalytic domain was liberated by treatment with 2 mM APMA at room temperature overnight; ubiquitin (N, cleaved yes); made in house; host or cells: E. coli

[3] = target: T2, catalytic domain of human stromelysin (Hsln) (Homo sapiens, UniProt P08254); experiment: Fluorometric MCA-peptide hydrolysis assay, stromelysin (Hsln); format: biochemical; conditions: apparent Ki; 10 μM MCA peptide substrate, 37° C., pH 7.5; read-out: Hsln (Ki,app)
T2 construct: The catalytic domain of human stromelysin (Hsln) was obtained by expression and purification of a C-terminally truncated prostromelysin-1; made in house; host or cells: E. coli BL21
Summary of the method: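 APMA-activated E. coli–expressed catalytic domain, with 10 μM MCA-Pro-Leu-Gly-Leu-DPA-Ala-Arg-NH2 at 37 °C. Buffer was pH 7.5 Tricine with NaCl, CaCl2, zinc acetate and 2% final DMSO; fluorescence read at ex 328/em 393 nm over 60 min. Ki,app from steady-state rates fitted to competitive or Morrison tight-binding equations.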

[4] = target: T3, fibroblast collagenase-1 catalytic domain (HFC) (Homo sapiens, UniProt P03956); experiment: Fluorometric MCA-peptide hydrolysis assay, fibroblast collagenase-1 (HFC); format: biochemical; conditions: apparent Ki; 10 μM MCA peptide substrate, 37° C., pH 7.5; read-out: HFC (Ki,app)
T3 construct: The catalytic domain of human collagenase-1 was expressed as a fusion protein with ubiquitin in E. coli; ubiquitin (cleaved yes); made in house; host or cells: E. coli
T3 sequence (P03956 100-269 limits assumed): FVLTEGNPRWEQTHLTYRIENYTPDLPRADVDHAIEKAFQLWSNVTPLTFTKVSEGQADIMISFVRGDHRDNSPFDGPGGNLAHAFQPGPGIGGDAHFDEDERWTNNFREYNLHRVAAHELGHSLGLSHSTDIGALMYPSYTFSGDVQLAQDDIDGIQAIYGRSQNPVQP
Protocol: The catalytic domain of human collagenase-1 was expressed as a fusion protein with ubiquitin in E. coli (see Gehring, E. R., J Biol. Chem., 1995, 270, 22507). After purification of the fusion protein, the fibroblast collagenase-1 catalytic domain (HFC) was released either by treatment with purified, active stromelysin-1 (1:50 w/w ratio), which generated nearly 100% N-terminal Phe1, or by autoprocessing the concentrated collagenase-1 fusion and then incubating at 37° C. for 1 hour. Final purification was completed using zinc chelate chromatography.
Assays were performed in assay buffer (50 mM Tricine pH 7.5, 200 mM sodium chloride, 10 mM calcium chloride, 0.5 mM zinc acetate containing 2% dimethyl sulfoxide (DMSO)) once the substrate and inhibitor were diluted into it. Stock solutions of inhibitors were prepared in 100% DMSO. Stock solutions of the substrate were prepared in 100% DMSO at a concentration of 6 mM.
The assay method was based on the hydrolysis of MCA-Pro-Leu-Gly-Leu-DPA-Ala-Arg-NH2 (American Peptide Co.) at 37° C. (see Knight, C. G. et al., FEBS, 1992, 296, 263-266). The fluorescence changes were monitored with a Perkin-Elmer LS-50B fluorimeter using an excitation wavelength of 328 nm and an emission wavelength of 393 nm. The substrate concentration used in the assays was 10 μM. The inhibitor was diluted into the assays from a solution in 100% DMSO, and controls substituted an equal volume of DMSO so that the final DMSO concentration from inhibitor and substrate dilution in all assays was 2%. […] Proper determination of steady-state rates of substrate cleavage required assay lengths of 60 minutes to allow for complete equilibration of the enzyme-inhibitor complex.
The Km for the MCA peptide substrate with the matrix metalloproteinases is quite high and exceeds its solubility under assay conditions. Consequently, the apparent Ki (Ki,app) was determined to describe the strength of inhibition. However, in this case, Ki,app would be essentially equal to Ki since [S]<<Km. For the determination of Ki,app, the concentration of the inhibitor was varied at a constant and low concentration of substrate and the steady-state rates of fluorescence change determined. In most cases absorptive quench due to the presence of ligand was not observed. For slow-binding inhibitors, onset of inhibition curves were collected for at least 45 minutes so that equilibrium was established. Steady-state rates of fluorescence change were obtained by fitting a curve to an equation for a single exponential decay containing a linear phase. The fitted value of the linear phase was taken as the steady-state rate. The steady-state rates were fitted to the Michaelis equation describing competitive inhibition by non-linear methods. Data resulting from tight-binding inhibition was analyzed, and Ki,app determined by fitting the data to the tight-binding equation of Morrison (Biochem. Biophys. Acta, vol. 185, pp. 269-286 (1969)) by non-linear methods.

[5] = target: T4, human progelatinase A (GelA), catalytic and fibronectin-like portion (Homo sapiens, UniProt P08253); experiment: Fluorometric MCA-peptide hydrolysis assay, gelatinase A (GelA); format: biochemical; conditions: apparent Ki; 10 μM MCA peptide substrate, 37° C., pH 7.5
T4 construct: The catalytic and fibronectin-like portion of human progelatinase A (GelA) was expressed as a fusion protein with ubiquitin; ubiquitin; made in house; host or cells: E. coli
Summary of the method: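 E. coli-expressed ubiquitin fusion of human proGelA catalytic plus fibronectin-like domains, autoactivated; 10 μM MCA-Pro-Leu-Gly-Leu-DPA-Ala-Arg-NH2, pH 7.5 Tricine/NaCl/CaCl2/Zn buffer, 2% DMSO, 37° C, 60 min. Fluorescence 328/393 nm; steady-state rates fitted to competitive inhibition or Morrison tight-binding equation giving Ki,app (≈Ki since [S]<<Km).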

[6] = target: T5, Human matrilysin (Matr) (Homo sapiens, UniProt P09237); experiment: Fluorometric MCA-peptide hydrolysis assay, matrilysin (Matr); format: biochemical; conditions: apparent Ki; 10 μM MCA peptide substrate, 37° C., pH 7.5; read-out: Matr (Ki,app)
T5 construct: the catalytic domain was liberated by treatment with 2 mM APMA at 37° C. for 2 hours; ubiquitin (cleaved yes); made in house; host or cells: E. coli
T5 sequence (P09237 95-267): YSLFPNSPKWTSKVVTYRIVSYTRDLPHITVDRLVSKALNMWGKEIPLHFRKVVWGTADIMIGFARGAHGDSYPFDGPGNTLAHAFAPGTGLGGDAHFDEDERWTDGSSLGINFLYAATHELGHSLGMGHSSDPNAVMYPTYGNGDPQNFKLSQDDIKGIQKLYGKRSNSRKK
Summary of the method: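 Catalytic domain of E. coli-expressed human matrilysin assayed at 37° C, pH 7.5 Tricine buffer, 2% DMSO, with 10 μM MCA-Pro-Leu-Gly-Leu-DPA-Ala-Arg-NH2; fluorescence ex 328/em 393 nm over 60 min. Ki,app from steady-state rates fitted to competitive inhibition or Morrison tight-binding equation.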

[7] = dose 50 mg/kg, vehicle B (60% aq. propylene glycol)
[8] = dose 50 mg/kg, vehicle B, dosed as the benzyl ester prodrug
[9] = dose 25 mg/kg, vehicle A (molar equivalent of HCl in water)
[10] = dose 50 mg/kg, vehicle A, dosed as the benzyl ester prodrug
[11] = dose 25 mg/kg, vehicle C (2.8 mg/mL sodium bicarbonate in 60% aqueous propylene glycol)

T4 sequence (P08253 110-465 limits assumed): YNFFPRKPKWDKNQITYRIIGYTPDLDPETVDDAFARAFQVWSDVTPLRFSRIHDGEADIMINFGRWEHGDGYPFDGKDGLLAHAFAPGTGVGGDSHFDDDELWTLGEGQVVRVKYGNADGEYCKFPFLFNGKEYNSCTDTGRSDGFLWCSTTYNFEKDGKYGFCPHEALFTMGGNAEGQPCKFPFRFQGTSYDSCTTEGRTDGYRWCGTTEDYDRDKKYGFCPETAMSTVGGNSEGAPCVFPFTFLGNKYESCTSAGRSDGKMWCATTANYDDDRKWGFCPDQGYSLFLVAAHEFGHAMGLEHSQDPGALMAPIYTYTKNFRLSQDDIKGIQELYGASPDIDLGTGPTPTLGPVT
T2 sequence (P08254 100-272 limits assumed): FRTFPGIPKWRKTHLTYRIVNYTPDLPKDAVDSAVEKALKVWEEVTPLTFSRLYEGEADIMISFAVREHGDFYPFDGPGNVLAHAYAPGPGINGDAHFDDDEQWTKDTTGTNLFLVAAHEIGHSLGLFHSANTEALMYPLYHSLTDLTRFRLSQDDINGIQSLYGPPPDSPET

| SMILES | AUC [1, 7] [ng·h/mL] | Cmax [1, 7] [ng/mL] | Ki [2] [nM] | Ki [3] [nM] | melting point | Ki [4] [nM] | GelA (Ki,app) [5] [nM] | Ki [6] [nM] | AUC [1, 8] [ng·h/mL] | Cmax [1, 8] [ng/mL] | AUC [1, 9] [ng·h/mL] | Cmax [1, 9] [ng/mL] | AUC [1, 10] [ng·h/mL] | Cmax [1, 10] [ng/mL] | AUC [1, 11] [ng·h/mL] | Cmax [1, 11] [ng/mL] |
| --- | --- | --- | --- | --- | --- | --- | --- | --- | --- | --- | --- | --- | --- | --- | --- | --- |
| CNC(=O)[C@@H](NC(=O)[C@@H](CC(=O)O)n1ccc(-c2ccc(C#N)cc2)c1)C(C)(C)C [Example 1(m), 3 (R)-[3-(4-Cyanophenyl)-1H-pyrrol-1-yl]-N-[2,2-dimethyl-1(S)-(methylcarbamoyl)propyl]succinamic Acid] | 967 | 590 | 1 | 50 | 138 to 140 °C | 997 | 0.41 |  |  |  |  |  |  |  |  |  |
| CCOC(=O)c1ccc(NC(=O)[C@H](CC(C)C)NC(=O)[C@@H](CC(=O)O)n2cccc2)cc1 [Example 1(n), 4-[2S-(3-Carboxy-2(R)-1H-pyrrol-1-yl-propionylamido)-4-methyl-pentanoylamino]benzoic Acid Ethyl Ester] |  |  | 8500 | 2000 | 111 to 114 °C | 1900 |  | > 10000 |  |  |  |  |  |  |  |  |
| CNC(=O)[C@@H](NC(=O)[C@@H](CC(=O)O)n1ccc(-c2ccc(-c3ccncc3)cc2)c1)C(C)(C)C [Example 6(b), N-(2,2-Dimethyl-1(S)-(methylcarbamoyl)propyl)-3(R)-[3-(4-(pyridin-4-yl)phenyl)-1H-pyrrol-1-yl]succinamic Acid] |  |  | 0.21 | 3.6 |  | 2900 | 0.066 |  | 617 | 300 |  |  |  |  |  |  |
| CC1(C)COC(=O)[C@H]1NC(=O)[C@@H](CC(=O)O)n1ccc(-c2ccc(-c3ccncc3)cc2)c1 [Example 6(c), N-(4,4-Dimethyl-2-oxo-tetrahydrofuran-3(S)-yl)-3(R)-[3-[4-(pyridin-4-yl)phenyl]-1H-pyrrol-1-yl]succinamic Acid] |  |  | 7.6 | 54 |  |  | 0.806 | 5000 |  |  | 933 | 450 | 4420 | 1140 |  |  |
| O=C(O)C[C@H](C(=O)N[C@H]1Cc2cn(c3ccccc23)CCOCCNC1=O)n1ccc(-c2ccc(-c3ccncc3)cc2)c1 [Example 7(a), N-(8-Oxo-4-oxa-1,7-diazatricyclo[9.6.1.0^12,17]octadeca-11(18),12,14,16-tetraen-9(S)-yl)-3(R)-[3-[4-(pyridin-4-yl)phenyl]-1H-pyrrol-1-yl]succinamic Acid] |  |  | 0.013 | 2 | > 172 °C (dec.) | 333 | 0.015 | 640 |  |  |  |  |  |  |  |  |
| CC(C)(C)[C@H](NC(=O)[C@@H](CC(=O)O)n1ccc(-c2ccc(-c3ccncc3)cc2)c1)C(=O)Nc1ccncc1 [Example 7(b), N-[2,2-Dimethyl-1(S)-(pyridin-4-ylcarbamoyl)propyl]-3(R)-[3-[4-(pyridin-4-yl)phenyl]-1H-pyrrol-1-yl]succinamic Acid] | 400 | 210 | 0.01 | 0.29 |  | 453 | 0.007 | 5 |  |  |  |  |  |  |  |  |
| O=C(O)C[C@H](C(=O)N[C@H](CO)Cc1ccccc1)c1ccn(-c2ccc(-c3ccccc3)cc2)c1 [Example 13] |  |  | 21 | 35 | 151 to 154 °C | 72000 | 1.7 | 16900 |  |  |  |  |  |  |  |  |
| CNC(=O)[C@@H](NC(=O)[C@@H](CC(=O)O)c1ccn(-c2ccc(F)cc2)c1)C(C)(C)C [Example 14(a), N-[2,2-Dimethyl-1(S)-(methylcarbamoyl)propyl]-3(S)-[1-(4-fluorophenyl)-1H-pyrrol-3-yl]succinamic Acid] | 1570 | 820 | 7.2 | 558 |  |  | 4.3 |  |  |  |  |  |  |  |  |  |
| CC1(C)COC(=O)[C@H]1NC(=O)[C@@H](CC(=O)O)c1ccn(-c2ccc(-c3ccc(C#N)cc3)cc2)c1 [Example 14(d), 3(S)-[1-(4′-Cyanobiphenyl-4-yl)-1H-pyrrol-3-yl]-N-(4,4-dimethyl-2-oxo-tetrahydrofuran-3(S)-yl)succinamic Acid] |  |  |  | 19 |  |  | 0.9 |  |  |  |  |  |  |  | 5820 | 1370 |
| COC(=O)c1ccc(NC(=O)[C@H](CC(C)C)NC(=O)[C@@H](CC(=O)O)c2ccsc2)cc1 [Example 17(b), 4-[2(S)-[2(R)-Carboxymethyl-2-(thien-3-yl)acetylamino]-4-methyl-valeroyl]-aminobenzoic Acid Methyl Ester] |  |  |  | 720 | 199 to 201 °C | 20000 |  | 309 |  |  |  |  |  |  |  |  |
